Test results taken from patent US11649227B2, “Allosteric chromenone inhibitors of phosphoinositide 3-kinase (PI3K) for the treatment of disease” (Petra Pharma Corporation, priority 2020, dated 2023).
Where two headings read alike, the source gives them in different places.

Experiments:
[1] = molecular target: human full length PIK3CA Wild-type (p110α/p85α complex) (Homo sapiens (Human), UniProt P42336); assay: PI3K-Alpha kinase (PIK3CA) activity, wild-type, Transcreener ADP2 FI assay; settings: PI3K-α (PIK3CA) wild-type, biochemical
Summary of the method: (§1)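 Recombinant full-length p110α/p85α (1-5 nM, wild-type or H1047R) preincubated with compound 1 h at 27° C, then reacted with 25 uM ATP and 50 uM PIP2diC8 or membrane PIP2:PS in pH 7.4 HEPES, 25 mM MgCl2, 5% DMSO (also pH 6.0/6.4 MOPS). Run to ~2.5 uM ADP; Transcreener ADP2 fluorescence converted via ADP calibration for IC50.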

[2] = molecular target: human full length PIK3CA H1047R mutant (p110α/p85α complex) (Homo sapiens (Human), UniProt P42336, H1047R); assay: PI3K-Alpha kinase (PIK3CA) activity, H1047R mutant, Transcreener ADP2 FI assay; settings: PI3K-α (PIK3CA) H1047R mutant, biochemical
Summary of the method: as §1

T-47D = assay: Cellular Assay T-47D; assay type: cell-based; settings: Homo sapiens, T47D; T-47D cells
PI3K-B = PI3K-B (Homo sapiens (Human), UniProt P42338); assay: Selectivity against selected lipid kinases: PI3K-B; assay type: biochemical
PI3K-D = PI3K-D (Homo sapiens (Human), UniProt O00329); assay: Selectivity against selected lipid kinases: PI3K-D; assay type: biochemical
PI3K-G = PI3K-G (Homo sapiens (Human), UniProt P48736); assay: Selectivity against selected lipid kinases: PI3K-G; assay type: biochemical
Vps34 = Vps34 (Homo sapiens (Human), UniProt Q8NEB9); assay: Selectivity against selected lipid kinases: Vps34; assay type: biochemical
DNA-PK = DNA-PK (Homo sapiens (Human), UniProt P78527); assay: Selectivity against selected lipid kinases: DNA-PK; assay type: biochemical
mTOR = mTOR (Homo sapiens (Human), UniProt P42345); assay: Selectivity against selected lipid kinases: mTOR; assay type: biochemical
Mouse PK Assays = settings: in vivo; for clearance: read-out: PK-Mouse: IV Cl; for bioavailability: read-out: PK-Mouse: PO F (%)
[3] = IV 1 mg/kg, read-out: PK-Mouse: IV-AUC-0-last
[4] = PO 10 mg/kg, 20% DMSO/60% PEG400/20% Water, fed
[5] = PO 50 mg/kg, 20% DMSO/60% PEG400/20% Water, fed
[6] = PO 50 mg/kg, 20% DMSO/60% PEG400/20% Water, fed, read-out: PK-Mouse: PO AUC-0-last
[7] = PO 10 mg/kg, 30% SBE-beta-cyclodextrin, fed

Sequence of human full length PIK3CA H1047R mutant (p110α/p85α complex) (P42336 whole entry H1047R): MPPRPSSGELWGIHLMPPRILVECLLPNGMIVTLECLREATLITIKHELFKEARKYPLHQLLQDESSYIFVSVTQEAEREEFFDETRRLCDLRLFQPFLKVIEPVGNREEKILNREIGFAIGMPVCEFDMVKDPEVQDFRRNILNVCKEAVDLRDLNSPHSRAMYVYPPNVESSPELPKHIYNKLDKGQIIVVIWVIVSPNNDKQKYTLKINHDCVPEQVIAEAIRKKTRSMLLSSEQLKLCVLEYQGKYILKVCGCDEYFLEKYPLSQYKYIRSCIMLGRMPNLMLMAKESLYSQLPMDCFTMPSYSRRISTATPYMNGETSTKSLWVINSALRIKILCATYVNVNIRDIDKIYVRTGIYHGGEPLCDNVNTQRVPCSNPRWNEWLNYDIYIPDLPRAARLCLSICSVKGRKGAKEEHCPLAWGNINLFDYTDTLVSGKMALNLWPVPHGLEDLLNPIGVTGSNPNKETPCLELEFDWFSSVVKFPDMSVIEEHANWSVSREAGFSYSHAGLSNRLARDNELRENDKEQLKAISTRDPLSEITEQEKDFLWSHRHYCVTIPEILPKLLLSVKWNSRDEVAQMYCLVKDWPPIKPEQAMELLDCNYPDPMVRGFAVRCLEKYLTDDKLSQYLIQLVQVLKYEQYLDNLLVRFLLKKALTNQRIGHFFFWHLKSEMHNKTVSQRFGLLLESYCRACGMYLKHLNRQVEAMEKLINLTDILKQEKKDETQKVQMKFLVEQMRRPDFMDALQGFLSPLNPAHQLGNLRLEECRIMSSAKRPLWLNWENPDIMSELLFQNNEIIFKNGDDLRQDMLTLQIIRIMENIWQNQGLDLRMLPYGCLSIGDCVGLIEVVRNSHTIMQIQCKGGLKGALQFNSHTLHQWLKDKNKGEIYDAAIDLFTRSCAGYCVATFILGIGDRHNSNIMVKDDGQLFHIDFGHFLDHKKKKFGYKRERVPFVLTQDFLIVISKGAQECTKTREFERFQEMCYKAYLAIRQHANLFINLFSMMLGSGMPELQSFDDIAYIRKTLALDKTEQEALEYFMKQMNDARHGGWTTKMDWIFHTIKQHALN
Sequence of human full length PIK3CA H1047R mutant (p110α/p85α complex) (P27986 whole entry partner): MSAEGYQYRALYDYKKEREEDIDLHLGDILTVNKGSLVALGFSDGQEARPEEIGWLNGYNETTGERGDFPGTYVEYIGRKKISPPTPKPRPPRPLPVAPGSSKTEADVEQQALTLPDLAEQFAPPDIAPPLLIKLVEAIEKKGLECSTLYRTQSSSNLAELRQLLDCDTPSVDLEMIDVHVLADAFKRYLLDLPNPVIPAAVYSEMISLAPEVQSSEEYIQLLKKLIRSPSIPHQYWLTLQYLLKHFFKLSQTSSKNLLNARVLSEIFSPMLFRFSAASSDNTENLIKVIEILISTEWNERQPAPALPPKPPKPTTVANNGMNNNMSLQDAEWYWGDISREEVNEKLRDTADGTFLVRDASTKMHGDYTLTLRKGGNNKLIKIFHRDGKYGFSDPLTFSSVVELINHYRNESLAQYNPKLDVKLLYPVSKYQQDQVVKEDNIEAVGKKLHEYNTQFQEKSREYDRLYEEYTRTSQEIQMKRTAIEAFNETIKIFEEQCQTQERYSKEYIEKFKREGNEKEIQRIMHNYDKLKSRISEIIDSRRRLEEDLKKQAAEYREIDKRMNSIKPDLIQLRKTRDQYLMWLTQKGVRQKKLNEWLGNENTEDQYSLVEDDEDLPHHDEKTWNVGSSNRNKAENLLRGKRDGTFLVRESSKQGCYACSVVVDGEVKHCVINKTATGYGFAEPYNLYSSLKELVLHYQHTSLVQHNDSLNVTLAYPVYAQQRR
Sequence of human full length PIK3CA Wild-type (p110α/p85α complex) (P42336 whole entry): as the sequence (P42336 whole entry H1047R) above, with R1047H counted along it
Sequence of human full length PIK3CA Wild-type (p110α/p85α complex) (P27986 whole entry partner): as the sequence (P27986 whole entry partner) above
Sequence of PI3K-G (P48736 whole entry): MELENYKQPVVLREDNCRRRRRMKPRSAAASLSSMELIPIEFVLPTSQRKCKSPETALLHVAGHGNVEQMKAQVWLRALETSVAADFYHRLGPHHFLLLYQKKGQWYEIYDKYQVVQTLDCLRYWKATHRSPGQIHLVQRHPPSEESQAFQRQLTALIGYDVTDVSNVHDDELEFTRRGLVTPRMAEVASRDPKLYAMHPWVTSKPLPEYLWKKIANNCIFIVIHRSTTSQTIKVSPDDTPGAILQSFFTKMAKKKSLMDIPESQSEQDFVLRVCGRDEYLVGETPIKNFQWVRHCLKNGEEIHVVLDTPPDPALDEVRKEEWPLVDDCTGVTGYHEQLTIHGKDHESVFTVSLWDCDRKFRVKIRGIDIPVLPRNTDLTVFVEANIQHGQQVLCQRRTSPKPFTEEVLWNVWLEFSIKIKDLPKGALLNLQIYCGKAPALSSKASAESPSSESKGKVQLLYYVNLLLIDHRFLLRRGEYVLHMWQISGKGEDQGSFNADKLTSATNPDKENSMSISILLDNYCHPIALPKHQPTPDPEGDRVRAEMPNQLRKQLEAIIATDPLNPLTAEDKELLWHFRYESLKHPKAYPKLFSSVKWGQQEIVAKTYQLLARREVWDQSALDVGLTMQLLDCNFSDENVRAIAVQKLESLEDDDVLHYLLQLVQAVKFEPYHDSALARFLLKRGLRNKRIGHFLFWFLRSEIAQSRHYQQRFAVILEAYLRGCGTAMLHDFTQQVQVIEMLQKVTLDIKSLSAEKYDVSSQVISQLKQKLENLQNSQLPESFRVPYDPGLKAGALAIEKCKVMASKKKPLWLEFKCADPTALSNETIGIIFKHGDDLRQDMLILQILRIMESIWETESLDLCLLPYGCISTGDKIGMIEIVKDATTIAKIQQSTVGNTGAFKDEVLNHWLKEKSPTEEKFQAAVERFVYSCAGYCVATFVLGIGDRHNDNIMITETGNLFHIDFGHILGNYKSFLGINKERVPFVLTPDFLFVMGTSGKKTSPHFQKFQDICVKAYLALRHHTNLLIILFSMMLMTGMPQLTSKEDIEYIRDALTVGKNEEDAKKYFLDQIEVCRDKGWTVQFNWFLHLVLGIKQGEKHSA
Sequence of Vps34 (Q8NEB9 whole entry, species assumed): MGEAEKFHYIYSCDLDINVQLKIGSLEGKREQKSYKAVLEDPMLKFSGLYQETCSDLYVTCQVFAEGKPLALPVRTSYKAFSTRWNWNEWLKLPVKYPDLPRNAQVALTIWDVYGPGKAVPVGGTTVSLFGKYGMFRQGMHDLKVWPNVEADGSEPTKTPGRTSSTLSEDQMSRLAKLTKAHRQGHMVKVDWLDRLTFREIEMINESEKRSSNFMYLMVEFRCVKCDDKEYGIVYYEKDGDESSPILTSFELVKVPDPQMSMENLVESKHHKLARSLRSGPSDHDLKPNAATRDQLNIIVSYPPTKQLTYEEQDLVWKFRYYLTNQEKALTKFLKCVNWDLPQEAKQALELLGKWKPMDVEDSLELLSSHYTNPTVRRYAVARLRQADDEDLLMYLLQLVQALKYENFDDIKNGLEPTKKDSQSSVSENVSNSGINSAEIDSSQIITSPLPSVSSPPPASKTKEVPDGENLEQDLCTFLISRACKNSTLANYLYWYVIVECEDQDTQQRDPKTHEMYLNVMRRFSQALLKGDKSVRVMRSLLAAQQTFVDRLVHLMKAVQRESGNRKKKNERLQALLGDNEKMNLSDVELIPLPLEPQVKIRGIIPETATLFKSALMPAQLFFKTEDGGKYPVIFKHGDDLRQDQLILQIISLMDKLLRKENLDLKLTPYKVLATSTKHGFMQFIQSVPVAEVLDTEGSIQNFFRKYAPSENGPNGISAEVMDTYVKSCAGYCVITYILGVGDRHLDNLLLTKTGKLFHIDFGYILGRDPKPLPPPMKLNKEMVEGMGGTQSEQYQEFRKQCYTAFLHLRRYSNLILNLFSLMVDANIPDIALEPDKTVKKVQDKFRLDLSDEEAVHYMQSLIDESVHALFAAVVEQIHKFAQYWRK
Sequence of PI3K-B (P42338 whole entry): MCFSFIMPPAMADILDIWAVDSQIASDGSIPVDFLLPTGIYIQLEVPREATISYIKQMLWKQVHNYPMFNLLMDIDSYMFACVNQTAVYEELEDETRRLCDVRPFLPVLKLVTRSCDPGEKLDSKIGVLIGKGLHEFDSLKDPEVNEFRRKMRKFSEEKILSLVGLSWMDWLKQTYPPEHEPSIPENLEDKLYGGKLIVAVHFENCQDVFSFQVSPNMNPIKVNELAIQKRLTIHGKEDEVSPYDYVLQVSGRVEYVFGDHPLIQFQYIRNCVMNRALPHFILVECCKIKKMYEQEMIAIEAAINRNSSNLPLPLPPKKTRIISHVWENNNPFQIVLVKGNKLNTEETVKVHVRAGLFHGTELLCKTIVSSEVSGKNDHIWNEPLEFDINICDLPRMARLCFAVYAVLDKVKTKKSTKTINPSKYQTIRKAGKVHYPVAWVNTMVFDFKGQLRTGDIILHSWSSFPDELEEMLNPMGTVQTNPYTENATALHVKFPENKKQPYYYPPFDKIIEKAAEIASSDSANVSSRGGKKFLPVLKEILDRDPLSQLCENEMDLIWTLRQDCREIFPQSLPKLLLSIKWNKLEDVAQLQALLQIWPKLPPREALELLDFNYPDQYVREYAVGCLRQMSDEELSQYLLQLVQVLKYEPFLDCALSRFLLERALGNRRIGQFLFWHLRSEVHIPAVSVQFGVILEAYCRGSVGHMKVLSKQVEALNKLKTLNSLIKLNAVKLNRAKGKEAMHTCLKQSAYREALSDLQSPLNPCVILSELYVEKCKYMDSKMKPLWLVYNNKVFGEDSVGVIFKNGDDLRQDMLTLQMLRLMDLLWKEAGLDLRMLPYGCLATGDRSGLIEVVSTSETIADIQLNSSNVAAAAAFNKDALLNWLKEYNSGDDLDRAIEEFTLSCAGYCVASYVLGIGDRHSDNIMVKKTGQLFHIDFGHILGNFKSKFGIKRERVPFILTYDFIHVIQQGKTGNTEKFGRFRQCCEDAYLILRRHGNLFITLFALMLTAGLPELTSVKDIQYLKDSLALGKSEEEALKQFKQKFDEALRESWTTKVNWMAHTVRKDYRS
Sequence of PI3K-B (P27986 whole entry partner): as the sequence (P27986 whole entry partner) above

Row | SMILES | IC50 [1] | IC50 [2] | EC50 (T-47D) | IC50 (PI3K-B) | IC50 (PI3K-D) | IC50 (PI3K-G) | IC50 (Vps34) | IC50 (DNA-PK) | IC50 (mTOR) | clearance (Mouse PK Assays; IV 1 mg/kg) | AUC(0-t) (Mouse PK Assays; [3]) | Cmax (Mouse PK Assays; [5]) | AUC(0-t) (Mouse PK Assays; [6]) | further results
1 | Cc1cc(C(C)Nc2ccccc2C(=O)O)c2oc(N3CCC(F)(F)CC3)cc(=O)c2c1 (single isomer, unassigned) [Example 130, 2-[1-[2-(4,4-Difluoro-1-piperidyl)-6-methyl-4-oxo-chromen-8-yl]ethylamino]benzoic acid] | 1 to 5 µM | < 0.5 µM | 1 to 5 µM |  |  |  |  |  |  |  |  |  |  | 
2 | Cc1cc(C(C)Nc2ccccc2C(=O)O)c2oc(N3CCC4(CCCCO4)CC3)cc(=O)c2c1 (stereo not shown) [Example 93, 2-[1-[6-Methyl-2-(1-oxa-9-azaspiro[5.5]undecan-9-yl)-4-oxo-chromen-8-yl]ethylamino]benzoic acid] | 5 to 10 µM | 0.5 to 1 µM | 5 to 15 µM |  |  |  |  |  |  |  |  |  |  | 
3 | Cc1cc(C(C)Nc2ccccc2C(=O)O)c2oc(N3CCC4(CCCC4)CC3)cc(=O)c2c1 (stereo not shown) [Example 96, 2-[1-[2-(8-Azaspiro[4.5]decan-8-yl)-6-methyl-4-oxo-chromen-8-yl]ethylamino]benzoic acid] | 1 to 5 µM | 0.5 to 1 µM | 1 to 5 µM |  |  |  |  |  |  |  |  |  |  | 

Further lines, with some results ahead:

Row | IC50 [1] | IC50 [2] | EC50 (T-47D) | IC50 (PI3K-B) | IC50 (PI3K-D) | IC50 (PI3K-G) | IC50 (Vps34) | IC50 (DNA-PK) | IC50 (mTOR) | clearance (Mouse PK Assays; IV 1 mg/kg) | AUC(0-t) (Mouse PK Assays; [3]) | Cmax (Mouse PK Assays; [5]) | AUC(0-t) (Mouse PK Assays; [6]) | SMILES | further results
4 |  |  | 1 to 5 µM | 0.11 µM | > 10 µM | > 10 µM | 0.45 µM | 0.98 µM | 7.8 µM | 8.2 mL/min/kg | 2130 ng·h/mL | 5100 ng/mL | 31000 ng·h/mL | Cc1cc(C(C)Nc2ccccc2C(=O)O)c2oc(N3Cc4ccccc4C3)cc(=O)c2c1 (single isomer, unassigned) [Example 363, 2-[1-(2-Isoindolin-2-yl-6-methyl-4-oxo-chromen-8-yl)ethylamino]benzoic acid] | Cmax (Mouse PK Assays; [4]): 1300 ng/mL; AUC(0-t) (Mouse PK Assays; PO 10 mg/kg, 20% DMSO/60% PEG400/20% Water, fed, read-out: PK-Mouse: PO AUC-0-last): 18000 ng·h/mL; bioavailability (Mouse PK Assays; [4]): 87%; bioavailability (Mouse PK Assays; [5]): 33%
5 |  |  | 1 to 5 µM | > 10 µM | > 10 µM | > 10 µM | > 10 µM | > 10 µM | > 10 µM | 43 mL/min/kg | 343 ng·h/mL | 8.56 ng/mL | 48 ng·h/mL | Cc1cc(C(C)Nc2ccccc2C(=O)O)c2oc(N3CCC(C)(C)CC3)cc(=O)c2c1 (single isomer, unassigned) [Example 366, 2-[1-[2-(4,4-Dimethyl-1-piperidyl)-6-methyl-4-oxo-chromen-8-yl]ethylamino]benzoic acid] | Cmax (Mouse PK Assays; [7]): 350 ng/mL; AUC(0-t) (Mouse PK Assays; PO 10 mg/kg, 30% SBE-beta-cyclodextrin, fed, read-out: PK-Mouse: PO AUC-0-last): 3.9 ng·h/mL; bioavailability (Mouse PK Assays; [7]): 100%; Cmax (Mouse PK Assays; PO 100 mg/kg, 20% DMSO/60% PEG400/20% H2O, fed): 22.6 ng/mL; AUC(0-t) (Mouse PK Assays; PO 100 mg/kg, 20% DMSO/60% PEG400/20% H2O, fed, read-out: PK-Mouse: PO AUC-0-last): 76 ng·h/mL
